Reference: US20240262848A1, “HETEROCYCLIC COMPOUNDS, COMPOSITIONS THEREOF, AND METHODS OF TREATMENT THEREWITH” (BeiGene, Ltd., priority 2022, published 2024)

Tests used:
[1] = target: GST-tagged GDP-loaded KRAS G12V (amino acids 1-169) (Homo sapiens, UniProt P01116, G12V); assay: KRAS G12V probe displacement assay (TR-FRET); format: binding; details: Table 4; KRAS G12V 2 nM, biotinylated probe 2 2.5 nM
Protocol: Plates are incubated at 24 °C for 1 hr. […] After 1 hr incubation at 24° C.

[2] = test system: pERK1/2(THR202/TYR204) level in SW620 cell line; assay: KRAS G12V pERK assay in SW620 cells (HTRF); format: cell-based; details: Homo sapiens, SW-620, Table 4, 2 hrs compound treatment
Protocol: SW620 cell line was used in this study. Cells were maintained in RPMI 1640 supplemented with 10% fetal bovine serum (Thermo Fisher), 50 units/mL penicillin and streptomycin (Thermo Fisher) and kept at 37° C. in a humidified atmosphere of 5% CO2 in air. Cells were reinstated from frozen stocks that were laid down within 30 passages from the original cells purchased. 40000 cells per well were seeded into a 96-well plate and incubated overnight. Cells were treated with a 10-point dilution series. The final compound concentration is from 0 to 10 μM. After 2 hrs compound treatment, cells were lysed, and the pERK1/2(THR202/TYR204) level in the cell lysates was detected by HTRF kit (Cisbio). In brief, a total of 16 μL of cell lysate from each well of a 96-well plate was transferred to a 384-well white assay plate. Lysate from each well was incubated with 2 μL of Eu3+-cryptate (donor) labeled anti-phospho-ERK1/2 and 2 μL of D)2 (acceptor) labeled anti-phospho-ERK1/2 antibodies (Cisbio) overnight in dark at room temperature. When donor and acceptor are in close proximity, excitation of the donor with laser triggers a Fluorescence Resonance Energy Transfer (FRET) towards the acceptor, which in turn fluoresces at 655 nm wavelength. FRET signals were measured using a PHERAstar FSX reader (BMG Labtech). IC50 determination was performed by fitting the curve of percent inhibition versus the log of the inhibitor concentration using Dotmatics.

Sequence of GST-tagged GDP-loaded KRAS G12V (amino acids 1-169) (P01116 1-169 isoform P01116-2 G12V): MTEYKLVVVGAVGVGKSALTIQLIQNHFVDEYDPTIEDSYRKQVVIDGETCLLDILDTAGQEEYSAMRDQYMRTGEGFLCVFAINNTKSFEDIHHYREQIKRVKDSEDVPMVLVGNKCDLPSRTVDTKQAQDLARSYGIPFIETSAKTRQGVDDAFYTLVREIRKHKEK

Which results are given for `CCN1c2nc(OC[C@@]34CCCN3C[C@H](F)C4)nc3c(F)c(-c4cc(N)cc(Cl)c4C(F)(F)F)nc(c23)O[C@H]2COCC[C@@H]21` [Example 58, 3-chloro-5-((7aR,11aS)-12-ethyl-4-fluoro-2-(((2R,7aS)-2-fluorotetrahydro-1H-pyrrolizin-7a(5H)-yl)methoxy)-7a, 8,10,11,11a, 12-hexahydro-7,9-dioxa-1,3,6,12-tetraazaplciaden-5-yl)-4-(trifluoromethyl)aniline]?
IC50 [1]: 0.49 nM; IC50 [2]: 29 nM

For `CN1CC2(COC2)COc2nc(-c3cc(N)cc(Cl)c3C(F)(F)F)c(F)c3nc(OC[C@@]45CCCN4C[C@H](F)C5)nc1c23` [Example 11, 3-chloro-5-(4-fluoro-2-(((2R,7aS)-2-fluorotetrahydro-1H-pyrrolizin-7a(5H)-yl)methoxy)-11-methyl-10,11-dihydro-8H-7-oxa-1,3,6,11-tetraazaspiro[cycloocta[de]naphthalene-9,3′-oxetan]-1(11a), 2,3a, 3 al(6a), 5-pentaen-5-yl)-4-(trifluoromethyl)aniline], which IC50 [1] is on record?
The IC50 was 16 nM.

What about the IC50 [2] of the same compound?
Its IC50 is 624 nM.

With `Cc1c(F)c(N)cc(-c2nc3c4c(nc(OC[C@@]56CCCN5C[C@H](F)C6)nc4c2F)N(C)[C@H]2CCOC[C@@H]2O3)c1C(F)(F)F` [Example 67, 2-fluoro-5-((7aR,11aS)-4-fluoro-2-(((2R,7aS)-2-fluorotetrahydro-1H-pyrrolizin-7a(5H)-yl)methoxy)-12-methyl-7a, 8,10,11,11a, 12-hexahydro-7,9-dioxa-1,3,6,12-tetraazapleiaden-5-yl)-3-methyl-4-(trifluoromethyl)aniline] as the compound, how does the IC50 [1] read?
Its IC50 is 0.65 nM.

And the IC50 [2]?
Its IC50 is 12 nM.

Which results are given for `CN1c2nc(OC[C@@]34CCCN3C[C@H](F)C4)nc3c(F)c(-c4cc(N)cc(Cl)c4C(F)(F)F)nc(c23)O[C@H]2CCOC[C@@H]21` [Example 50, 3-chloro-5-((7aS,11aS)-4-fluoro-2-(((2R,7aS)-2-fluorotetrahydro-1H-pyrrolizin-7a(5H)-yl)methoxy)-12-methyl-7a, 8,11a, 12-tetrahydro-9H, 11H-7,10-dioxa-1,3,6,12-tetraazapleiaden-5-yl)-4-(trifluoromethyl)aniline]?
IC50 [1]: 0.61 nM; IC50 [2]: 28 nM

Which results are given for `CCN1c2nc(OC[C@@]34CCCN3C[C@H](F)C4)nc3c(F)c(-c4cc(N)cc(C)c4C(F)(F)F)nc(c23)O[C@H]2COCC[C@@H]21` [Example 57, 3-((7aR,11aS)-12-ethyl-4-fluoro-2-(((2R,7aS)-2-fluorotetrahydro-1H-pyrrolizin-7a(5H)-yl)methoxy)-7a, 8,10,11,11a, 12-hexahydro-7,9-dioxa-1,3,6,12-tetraazapleiaden-5-yl)-5-methyl-4-(trifluoromethyl)aniline]?
IC50 [1]: 0.83 nM; IC50 [2]: 41 nM

With `CN1c2nc(OC[C@@]34CCCN3C[C@H](F)C4)nc3c(F)c(-c4cc(N)cc(Cl)c4C(F)(F)F)nc(c23)OCC12CC2` [Example 29, 3-chloro-5-(4-fluoro-2-(((2R,7aS)-2-fluorotetrahydro-1H-pyrrolizin-7a(5H)-yl)methoxy)-10-methyl-8H, 10H-7-oxa-1,3,6,10-tetraazaspiro[cyclohepta[de]naphthalene-9,1′-cyclopropan]-1(10a), 2,3a, 3 al(6a), 5-pentaen-5-yl)-4-(trifluoromethyl)aniline] as the compound, how does the IC50 [1] read?
The IC50 was 0.95 nM.

What about the IC50 [2] of the same compound?
Its IC50 is 56 nM.

Which results are given for `CCN1c2nc(OC[C@@]34CCCN3C[C@H](F)C4)nc3c(F)c(-c4cc(N)cc(C)c4C(F)(F)F)nc(c23)OCCC12CC2` [Example 54, 3-(11-ethyl-4-fluoro-2-(((2R,7aS)-2-fluorotetrahydro-1H-pyrrolizin-7a(5H)-yl)methoxy)-8,9-dihydro-11H-7-oxa-1,3,6,11-tetraazaspiro[cycloocta[de]naphthalene-10,1′-cyclopropan]-1(11a), 2,3a, 3a^1(6a), 5-pentaen-5-yl)-5-methyl-4-(trifluoromethyl)aniline]?
IC50 [1]: 1.7 nM; IC50 [2]: 51 nM

What does the source list for `CC1CN(C)c2nc(OC[C@@]34CCCN3C[C@H](F)C4)nc3c(F)c(-c4cc(N)cc(Cl)c4C(F)(F)F)nc(c23)O1` (stereo partly drawn) [Example 12, 3-chloro-5-(4-fluoro-2-(((2R,7aS)-2-fluorotetrahydro-1H-pyrrolizin-7a(5H)-yl)methoxy)-8,10-dimethyl-9,10-dihydro-8H-7-oxa-1,3,6,10-tetraazacyclohepta[de]naphthalen-5-yl)-4-(trifluoromethyl)aniline]?
IC50 [1]: 3.2 nM; IC50 [2]: 152 nM

What does the source list for `CCN1c2nc(OCC34CCCN3CC(F)C4)nc3c(F)c(-c4cc(N)cc(Cl)c4C(F)(F)F)nc(c23)OCCC12CC2` [Example 55, 3-chloro-5-(11-ethyl-4-fluoro-2-(((2R,7aS)-2-fluorotetrahydro-1H-pyrrolizin-7a(5H)-yl)methoxy)-8,9-dihydro-11H-7-oxa-1,3,6,11-tetraazaspiro[cycloocta[de]naphthalene-10,1′-cyclopropan]-1(11a), 2,3a, 3 al(6a), 5-pentaen-5-yl)-4-(trifluoromethyl)aniline]?
IC50 [1]: 0.57 nM; IC50 [2]: 41 nM

`CCN1c2nc(OC[C@@]34CCCN3C[C@H](F)C4)nc3c(F)c(-c4cc(N)cc(C)c4C(F)(F)F)nc(c23)OCCC12COC2` [Example 56, 3-(11-ethyl-4-fluoro-2-(((2R,7aS)-2-fluorotetrahydro-1H-pyrrolizin-7a(5H)-yl)methoxy)-8,9-dihydro-11H-7-oxa-1,3,6,11-tetraazaspiro[cycloocta[de]naphthalene-10,3′-oxetan]-1(11a), 2,3a, 3a^1(6a),5-pentaen-5-yl)-5-methyl-4-(trifluoromethyl)aniline] was tested. Which IC50 [1] did it give?
The IC50 was 1.2 nM.

And the IC50 [2]?
Its IC50 is 33 nM.

Which IC50 [1] does the source give for `C#Cc1c(F)ccc2cc(O)cc(-c3cc4c5c(nc(OC[C@@]67CCCN6C[C@H](F)C7)nc5c3F)N(C)CCCO4)c12` [Example 1, 5-ethynyl-6-fluoro-4-(11-fluoro-2-(((2R,7aS)-2-fluorotetrahydro-1H-pyrrolizin-7a(5H)-yl)methoxy)-4-methyl-4,5,6,7-tetrahydro-[1,5]oxazocino[4,3,2-de]quinazolin-10-yl)naphthalen-2-ol] here?
The IC50 was 3.2 nM.

What about the IC50 [2] of the same compound?
The IC50 was 624 nM.

How did the IC50 [1] turn out when `CN1c2nc(OC[C@@]34CCCN3C[C@H](F)C4)nc3c(F)c(-c4cc(N)cc(Cl)c4C(F)(F)F)nc(c23)OC[C@H]2CCC[C@H]21` [Example 52, 3-chloro-5-((8aS,11aR)-4-fluoro-2-(((2R,7aS)-2-fluorotetrahydro-1H-pyrrolizin-7a(5H)-yl)methoxy)-12-methyl-8a, 9,10,11,11a, 12-hexahydro-8H-7-oxa-1,3,6,12-tetraazacyclopenta[5,6]cycloocta[1,2,3-de]naphthalen-5-yl)-4-(trifluoromethyl)aniline] was run?
The IC50 was 6.5 nM.

And the IC50 [2]?
The IC50 was 158 nM.

With `CN1c2nc(OC[C@@]34CCCN3C[C@H](F)C4)nc3c(F)c(-c4cc(N)cc(Cl)c4C(F)(F)F)nc(c23)O[C@H]2CCCC[C@@H]21` [Example 46, 3-chloro-5-((7aS,11aS)-4-fluoro-2-(((2R,7aS)-2-fluorotetrahydro-1H-pyrrolizin-7a(5H)-yl)methoxy)-12-methyl-7a, 8,10,11,11a, 12-hexahydro-9H-7-oxa-1,3,6,12-tetraazapleiaden-5-yl)-4-(trifluoromethyl)aniline] as the compound, how does the IC50 [1] read?
Its IC50 is 0.48 nM.

And the IC50 [2]?
The IC50 was 37 nM.

Which results are given for `CN1c2nc(OC[C@@]34CCCN3C[C@H](F)C4)nc3c(F)c(-c4cc(N)cc(Cl)c4C(F)(F)F)nc(c23)OC[C@H]2COC[C@@H]21` (single isomer, unassigned) [Example 68 Isomer 1]?
IC50 [1]: 1.8 nM; IC50 [2]: 51 nM

For `CCc1c(F)ccc2cc(O)cc(-c3nc4c5c(nc(OC[C@@]67CCCN6C[C@H](F)C7)nc5c3F)N(C)C(C)CCO4)c12` (stereo partly drawn) [Example 16, 5-ethyl-6-fluoro-4-(4-fluoro-2-(((2R,7aS)-2-fluorotetrahydro-1H-pyrrolizin-7a(5H)-yl)methoxy)-10,11-dimethyl-8,9,10,11-tetrahydro-7-oxa-1,3,6,11-tetraazacycloocta[de]naphthalen-5-yl)naphthalen-2-ol], which IC50 [1] is on record?
Its IC50 is 1.4 nM.

What about the IC50 [2] of the same compound?
The IC50 was 50 nM.

How did the IC50 [1] turn out when `CN1c2nc(OC[C@@]34CCCN3C[C@H](F)C4)nc3c(F)c(-c4cc(N)cc(Cl)c4C(F)(F)F)nc(c23)OCC12COC2` [Example 23, 3-chloro-5-(4-fluoro-2-(((2R,7aS)-2-fluorotetrahydro-1H-pyrrolizin-7a(5H)-yl)methoxy)-10-methyl-8H, 10H-7-oxa-1,3,6,10-tetraazaspiro[cyclohepta[de]naphthalene-9,3′-oxetan]-1(10a), 2,3a, 3a^1(6a), 5-pentaen-5-yl)-4-(trifluoromethyl)aniline] was run?
Its IC50 is 9.2 nM.

And the IC50 [2]?
Its IC50 is 338 nM.

For `C#Cc1c(F)ccc2cc(O)cc(-c3nc4c5c(nc(OC[C@@]67CCCN6C[C@H](F)C7)nc5c3F)N(C3CC3)CCCO4)c12` [Example 5, 4-(11-cyclopropyl-4-fluoro-2-(((2R,7aS)-2-fluorotetrahydro-1H-pyrrolizin-7a(5H)-yl)methoxy)-8,9,10,11-tetrahydro-7-oxa-1,3,6,11-tetraazacycloocta[de]naphthalen-5-yl)-5-ethynyl-6-fluoronaphthalen-2-ol], which IC50 [1] is on record?
Its IC50 is 0.87 nM.

What about the IC50 [2] of the same compound?
Its IC50 is 288 nM.
